The values below come from patent US20040224958A1, “Pyridopyrimidinone derivatives for treatment of neurodegenerative disease” (priority 2000, published 2004).

Where two headings read alike, the source gives them in different places.

For one experiment, the target named is cdk2/cyclinA (Homo sapiens, UniProt P24941). Kind of experiment: Cyclin-Dependent Kinase Assay cdk2/cyclinA.
A further experiment deals with cdk2/cyclinE (Homo sapiens, UniProt P24941). Put plainly: Cyclin-Dependent Kinase Assay cdk2/cyclinE.
The target in a further experiment is Cdk5/p25 (Homo sapiens, UniProt Q00535). Kind of experiment: Cyclin-Dependent Kinase 5 High Throughput Screening (cdk5-HTS) Assay. The experiment is classed as biochemical. The following applies: high throughput screen. The method, then:
Cyclin-Dependent Kinase 5 High Throughput Screening (cdk5-HTS) Assay
Enzyme assays for IC50 determinations were performed in 96-Pierce Reacti-Bind™ White Opaque Glutatione Coated Plates (Cat. No. 15240B).
The total volume was 0.100 mL containing a final concentration of 50 mM TRIS (tris[hydroxymethyl]aminomethane) at pH 7.4, 50 mM NaCl, 10 mM MgCl2, 5 mM dithiothreitol, 20 μM ATP containing 16 μCi/mL of Redivue[y33P]ATP (Amersham Pharmacia Biotech Cat. No. AH9968), 1.0 μg/mL Cdk5/p25, 20 μg/mL GST-RbCOOH, and appropriate dilutions of a compound of the present invention. The reaction was started by adding[^33P]ATP, and the plate was shaken for 30 seconds, then incubated at room temperature for 30 minutes. The reaction was terminated by addition of 0.05 mL of 120 mM EDTA. The plate was kept at room temperature for 45 minutes to allow substrate to bind to the walls of the plate. The wells were then washed three times with 0.2 mL of 1×PBS. Once thoroughly dry, 0.140 mL of MicroScint™2O (Packard Bioscience Cat. No. 87-9081) cocktail was added to all wells. The incorporation of ^33P was determined with a beta plate counter (Packard Topcount).

For another experiment, the target named is cdk4/D (Homo sapiens, UniProt P11802). Put plainly: Cyclin-Dependent Kinase 4 (cdk4) Assay. The experiment is classed as biochemical. As to conditions: read-out: cdk4/D IC50. Here is the method:
A typical assay, for instance, measures inhibitory activity against the cyclin D dependent kinase 4 enzyme (cdk4/D). […] The cdk4 assay was carried out as follows.
Cyclin-Dependent Kinase 4 (cdk4) Assay
All components except the ATP were added to the wells, and the plate was placed on a plate mixer for 2 minutes. The reaction was started by adding [^32P]ATP and the plate was incubated at 25° C. for 15 minutes. The reaction was terminated by addition of 0.1 mL of 20% trichloroacetic acid (TCA). The plate was kept at 4° C. for at least 1 hour to allow the substrate to precipitate. The wells were then washed five times with 0.2 mL of 10% TCA and ^32P incorporation was determined with a beta plate counter (Wallac Inc., Gaithersburg, Md.).

The target in another experiment is cdc2/cyclinB (Homo sapiens, UniProt P06493). Put plainly: Cyclin-Dependent Kinase Assay cdc2/cyclinB.
cdc2/cyclinB, sequence (P06493 whole entry): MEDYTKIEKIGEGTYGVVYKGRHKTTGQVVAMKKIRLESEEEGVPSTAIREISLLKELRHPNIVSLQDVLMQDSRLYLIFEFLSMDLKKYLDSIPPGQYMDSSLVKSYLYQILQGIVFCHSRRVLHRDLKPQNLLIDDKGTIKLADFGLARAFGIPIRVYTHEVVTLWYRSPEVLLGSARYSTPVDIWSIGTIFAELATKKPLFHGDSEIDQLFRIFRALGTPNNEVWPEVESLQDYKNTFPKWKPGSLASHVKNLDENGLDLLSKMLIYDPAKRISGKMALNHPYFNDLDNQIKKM
cdc2/cyclinB, sequence (P14635 whole entry, further chain): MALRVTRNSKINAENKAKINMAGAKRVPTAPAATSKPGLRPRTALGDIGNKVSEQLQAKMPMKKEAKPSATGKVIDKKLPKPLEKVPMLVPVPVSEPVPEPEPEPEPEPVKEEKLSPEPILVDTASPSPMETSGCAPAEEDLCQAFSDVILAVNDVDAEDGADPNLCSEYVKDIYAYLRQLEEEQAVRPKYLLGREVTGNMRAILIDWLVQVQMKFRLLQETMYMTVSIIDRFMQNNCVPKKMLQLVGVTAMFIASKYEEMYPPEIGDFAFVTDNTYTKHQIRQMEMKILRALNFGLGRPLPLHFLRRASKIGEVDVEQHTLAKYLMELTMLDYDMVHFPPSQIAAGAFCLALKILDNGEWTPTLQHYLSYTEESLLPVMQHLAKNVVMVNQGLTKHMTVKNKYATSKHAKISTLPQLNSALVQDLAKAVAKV

cdk4/D, sequence (P11802 whole entry): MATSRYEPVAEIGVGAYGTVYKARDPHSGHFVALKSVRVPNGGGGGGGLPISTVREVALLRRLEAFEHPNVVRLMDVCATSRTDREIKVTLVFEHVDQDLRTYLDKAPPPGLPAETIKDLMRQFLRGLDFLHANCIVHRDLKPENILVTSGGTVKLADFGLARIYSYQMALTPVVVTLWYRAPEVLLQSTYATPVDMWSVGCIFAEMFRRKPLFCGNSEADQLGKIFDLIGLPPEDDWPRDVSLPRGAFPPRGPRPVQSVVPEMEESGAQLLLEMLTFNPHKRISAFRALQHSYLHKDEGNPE
cdk4/D, sequence (P24385 whole entry, further chain): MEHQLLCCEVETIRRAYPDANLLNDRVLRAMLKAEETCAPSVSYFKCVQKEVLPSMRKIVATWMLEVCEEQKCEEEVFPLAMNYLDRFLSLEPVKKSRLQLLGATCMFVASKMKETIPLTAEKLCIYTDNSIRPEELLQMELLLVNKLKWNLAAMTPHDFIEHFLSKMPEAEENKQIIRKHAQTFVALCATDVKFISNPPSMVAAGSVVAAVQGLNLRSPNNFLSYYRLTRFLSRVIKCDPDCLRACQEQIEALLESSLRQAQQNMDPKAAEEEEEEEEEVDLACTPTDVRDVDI

Take “2-(3-Chloro-4-iodo-phenylamino)-8-propyl-8H-pyrido[2,3-d]pyrimidin-7-one [Example 573]”: the IC50 is 820 nM on cdk2/cyclinA (read-out: cdk2/A IC50); 180 nM on cdk2/cyclinE (read-out: cdk2/E IC50); 100 nM on Cdk5/p25; 190 nM on cdk4/D; 260 nM on cdc2/cyclinB (read-out: cdk1/B IC50).
Turning to “2-(3-Hydroxy-4-methoxy-phenylamino)-8-propyl-8H-pyrido[2,3-d]pyrimidin-7-one [Example 296]”, the IC50 on cdk2/cyclinA (read-out: cdk2/A IC50) was determined as 960 nM; at cdk2/cyclinE (read-out: cdk2/E IC50), 240 nM; against Cdk5/p25 it was 120 nM; on cdk4/D, 540 nM; on cdc2/cyclinB (read-out: cdk1/B IC50), 440 nM.
In the case of `CCn1c(=O)ccc2cnc(Nc3cc(F)cc(F)c3)nc21` [Example 303, 2-(3,5-Difluoro-phenylamino)-8-ethyl-8H-pyrido[2,3-d]pyrimidin-7-one], the IC50 at cdk2/cyclinA (cdk2/A IC50) amounted to 1200 nM; at cdk2/cyclinE (cdk2/E IC50) it was 840 nM; against Cdk5/p25 it was 470 nM; at cdc2/cyclinB it was 930 nM.
The matching figures for `CCn1c(=O)ccc2cnc(Nc3cccc(C(F)(F)F)c3)nc21` [Example 305, 8-Ethyl-2-(3-trifluoromethyl-phenylamino)-8H-pyrido[2,3-d]pyrimidin-7-one]: 1100 nM, 670 nM, 240 nM and 550 nM.
As for `CCCn1c(=O)ccc2cnc(Nc3ccc(Cl)c(C(F)(F)F)c3)nc21` [Example 312, 2-(4-Chloro-3-trifluoromethyl-phenylamino)-8-propyl-8H-pyrido[2,3-d]pyrimidin-7-one], the IC50 on cdk2/cyclinA (read-out: cdk2/A IC50) stood at 2670 nM; at cdk2/cyclinE (read-out: cdk2/E IC50), 330 nM; on Cdk5/p25, 112 nM; at cdc2/cyclinB (read-out: cdk1/B IC50), 268 nM.
As to `CCCn1c(=O)ccc2cnc(Nc3ccc(F)c(F)c3)nc21` [Example 343, 2-(3,4-Difluoro-phenylamino)-8-propyl-8H-pyrido[2,3-d]pyrimidin-7-one], the IC50 is 290 nM against cdk2/cyclinA (cdk2/A IC50), 120 nM on cdk2/cyclinE (cdk2/E IC50), 110 nM at Cdk5/p25 and 280 nM on cdc2/cyclinB.
As for `CCCn1c(=O)ccc2cnc(Nc3cc(F)cc(F)c3)nc21` [Example 349, 2-(3,5-Difluoro-phenylamino)-8-propyl-8H-pyrido[2,3-d]pyrimidin-7-one], the IC50 against cdk2/cyclinA (cdk2/A IC50) was determined as 1100 nM; against cdk2/cyclinE (cdk2/E IC50) it was 530 nM; on Cdk5/p25, 200 nM; at cdc2/cyclinB, 880 nM.
In the case of `CCCn1c(=O)ccc2cnc(Nc3cccc(NC(C)=O)c3)nc21` [Example 353, N-[3-(7-Oxo-8-propyl-7,8-dihydro-pyrido[2,3-d]pyrimidin-2-ylamino)-phenyl]-acetamide], the IC50 against cdk2/cyclinA (cdk2/A IC50) was determined as 460 nM; against cdk2/cyclinE (cdk2/E IC50), 320 nM; on Cdk5/p25, 230 nM; on cdc2/cyclinB it was 710 nM.
For `CCCn1c(=O)ccc2cnc(Nc3ccc(O)c(CN4CCOCC4)c3)nc21` [Example 355, 2-(4-Hydroxy-3-morpholin-4-ylmethyl-phenylamino)-8-propyl-8H-pyrido[2,3-d]pyrimidin-7-one], in that order: 1100 nM, 680 nM, 300 nM and 500 nM.
Consider `CCCn1c(=O)ccc2cnc(Nc3ccc(OC(F)(F)F)cc3)nc21` [Example 362, 8-Propyl-2-(4-trifluoromethoxy-phenylamino)-8H-pyrido[2,3-d]pyrimidin-7-one], for which the IC50 at cdk2/cyclinA (cdk2/A IC50) came to 4000 nM; on Cdk5/p25, 190 nM; against cdc2/cyclinB, 270 nM.
Consider `CCCCn1c(=O)ccc2cnc(Nc3c(F)cc(F)cc3F)nc21` [Example 366, 8-Butyl-2-(2,4,6-trifluoro-phenylamino)-8H-pyrido[2,3-d]pyrimidin-7-one], for which the IC50 was 882 nM at cdk2/cyclinA (cdk2/A IC50), 255 nM against cdk2/cyclinE (cdk2/E IC50), 699 nM against Cdk5/p25 and 1320 nM against cdc2/cyclinB.
Consider `CCCCn1c(=O)ccc2cnc(Nc3cc(OC)c(OC)c(OC)c3)nc21` [Example 389, 8-Butyl-2-(3,4,5-trimethoxy-phenylamino)-8H-pyrido[2,3-d]pyrimidin-7-one], for which the IC50 against cdk2/cyclinA (cdk2/A IC50) was found to be 870 nM; on cdk2/cyclinE (cdk2/E IC50), 320 nM; against Cdk5/p25 it was 200 nM; against cdc2/cyclinB, 450 nM.
For `CC(C)n1c(=O)ccc2cnc(Nc3ccc(C#N)c(C#N)c3)nc21` [Example 423, 4-(8-Isopropyl-7-oxo-7,8-dihydro-pyrido[2,3-d]pyrimidin-2-ylamino)-phthalonitrile], in that order: 2600 nM, 1100 nM, 160 nM and 1800 nM.
Consider `CC(C)n1c(=O)ccc2cnc(Nc3ccc(O)c(CN4CCOCC4)c3)nc21` [Example 436, 2-(4-Hydroxy-3-morpholin-4-ylmethyl-phenylamino)-8-isopropyl-8H-pyrido[2,3-d]pyrimidin-7-one], for which the IC50 stood at 730 nM against cdk2/cyclinA (cdk2/A IC50), 340 nM against cdk2/cyclinE (cdk2/E IC50), 970 nM at Cdk5/p25 and 1800 nM on cdk4/D.
Regarding `Cc1ccc(Nc2ncc3ccc(=O)n(C(C)C)c3n2)cc1NS(C)(=O)=O` [Example 439, N-[5-(8-Isopropyl-7-oxo-7,8-dihydro-pyrido[2,3-d]pyrimidin-2-ylamino)-2-methyl-phenyl]-methanesulfonamide], the IC50 is 630 nM on cdk2/cyclinA (cdk2/A IC50), 120 nM at Cdk5/p25, 310 nM at cdk4/D and 400 nM on cdc2/cyclinB.
In the case of `CCC(C)n1c(=O)ccc2cnc(Nc3ccc(OC)c(F)c3)nc21` (stereo not drawn) [Example 462, 8-sec-Butyl-2-(3-fluoro-4-methoxy-phenylamino)-8H-pyrido[2,3-d]pyrimidin-7-one], the IC50 against cdk2/cyclinA (cdk2/A IC50) was 78 nM; at cdk2/cyclinE (cdk2/E IC50) it was 60 nM; on Cdk5/p25 it was 10 nM; against cdc2/cyclinB, 88 nM.
The matching figures for `CCC(C)n1c(=O)ccc2cnc(Nc3cccc(C(F)(F)F)c3)nc21` (stereo not drawn) [Example 477, 8-sec-Butyl-2-(3-trifluoromethyl-phenylamino)-8H-pyrido[2,3-d]pyrimidin-7-one]: 370 nM, 260 nM, 38 nM and 170 nM.
As for `CCC(CC)n1c(=O)ccc2cnc(Nc3cc(OC)c(OC)c(OC)c3)nc21` [Example 501, 8-(1-Ethyl-propyl)-2-(3,4,5-trimethoxy-phenylamino)-8H-pyrido[2,3-d]pyrimidin-7-one], the IC50 against cdk2/cyclinA (cdk2/A IC50) stood at 760 nM; at cdk2/cyclinE (cdk2/E IC50), 240 nM; against Cdk5/p25 it was 81 nM; at cdc2/cyclinB, 280 nM.
On to `O=c1ccc2cnc(Nc3ccc(F)c(C(F)(F)F)c3)nc2n1C1CCCC1` [Example 534, 8-Cyclopentyl-2-(4-fluoro-3-trifluoromethyl-phenylamino)-8H-pyrido[2,3-d]pyrimidin-7-one], for which the IC50 against cdk2/cyclinA (cdk2/A IC50) was found to be 340 nM; against Cdk5/p25, 45 nM; on cdk4/D it was 340 nM; on cdc2/cyclinB, 190 nM.
Consider `Nc1c(Cl)cc(Nc2ncc3ccc(=O)n(C4CCCC4)c3n2)cc1Cl` [Example 557, 2-(4-Amino-3,5-dichloro-phenylamino)-8-cyclopentyl-8H-pyrido[2,3-d]pyrimidin-7-one], for which the IC50 against cdk2/cyclinA (cdk2/A IC50) is 130 nM; at Cdk5/p25, 96 nM; on cdk4/D, 120 nM; on cdc2/cyclinB, 73 nM.
Turning to `O=c1ccc2cnc(Nc3ccc(Br)c(C(F)(F)F)c3)nc2n1CC1CC1` [Example 589, 2-(4-Bromo-3-trifluoromethyl-phenylamino)-8-cyclopropylmethyl-8H-pyrido[2,3-d]pyrimidin-7-one], the IC50 against cdk2/cyclinA (cdk2/A IC50) came to 710 nM; against cdk2/cyclinE (cdk2/E IC50), 190 nM; on Cdk5/p25 it was 570 nM; at cdc2/cyclinB, 1300 nM.
`O=c1ccc2cnc(Nc3ccc(C(F)(F)F)cc3)nc2n1CC1CC1` [Example 590, 8-Cyclopropylmethyl-2-(4-trifluoromethyl-phenylamino)-8H-pyrido[2,3-d]pyrimidin-7-one]: the IC50 on cdk2/cyclinA (cdk2/A IC50) came out at 320 nM; at Cdk5/p25 it was 160 nM; at cdk4/D, 460 nM; on cdc2/cyclinB it was 650 nM.
With `O=c1ccc2cnc(Nc3cc(Cl)c(O)c(Cl)c3)nc2n1CC(F)(F)F` [Example 598, 2-(3,5-Dichloro-4-hydroxy-phenylamino)-8-(2,2,2-trifluoro-ethyl)-8H-pyrido[2,3-d]pyrimidin-7-one], the IC50 against cdk2/cyclinA (cdk2/A IC50) was 970 nM; at cdk2/cyclinE (cdk2/E IC50) it was 523 nM; against Cdk5/p25, 525 nM; against cdc2/cyclinB it was 455 nM.
